Reference: patent publication US12697343B2, “Intravenous istaroxime for the treatment of acute heart failure” (Seismic Pharmaceuticals Operations LLC, priority 2021, dated 2026)
Where a name gives a salt, the structure may show the parent alone.

Tested on: patients hospitalized for acute heart failure (AHF)
Assay: Echocardiographic parameters (tissue Doppler echocardiography), phase II trial of 24 h istaroxime infusion
Assay type: in vivo, human
Details: for A wave mean change from baseline / CI mean change from baseline / E wave mean change from baseline / E/A ratio mean change from baseline / E/e′ ratio mean change from baseline / EDV Index mean change from baseline / EDV mean change from baseline / ESV Index mean change from baseline / ESV mean change from baseline / IVC diameter mean change from baseline / LAA mean change from baseline / LAV mean change from baseline / LAVI mean change from baseline / LVEF mean change from baseline / PASP mean change from baseline / SVI mean change from baseline / S′ mean change from baseline / TAPSE mean change from baseline / e′ mean change from baseline: 0.5 μg/Kg/min; for E/e′ change from baseline to 24 h (primary endpoint): 0.5 μg/kg/min (cohort 1), mITT, hydrochloride
Text: The measurement of one or more cardiac parameters disclosed herein can be measured by Echocardiography which may be performed on subjects according to international standards (see, for example, Lang R M et a I. J Am Soc Echocardiogr 2005; 18(12): 1440-63; Nagueh S F et al. Eur J Echocardiogr 2009; 10(2): 165-93; Evangelista A et a I. Eur J Echocardiogr 2008; 9(4):438-48).
In some embodiments, cardiac parameters can be measured as follows: • 1. Cardiac dimension measures: • a. Left ventricle end diastolic diameter (EDD): measured with M-mode echocardiography at the level of mitral valve (MV) leaflets from parasternal long axis view (PLAX) (normal range [N R]: 42-59 mm males and 39-53 mm females); • b. Left ventricle end systolic diameter (ESD): measured with M-mode echocardiography at the level of mitral valve (MV) leaflets from PLAX (N R: 25-35 mm): • c. Left ventricle end diastolic volume (EDV): measured with M-mode echocardiography at the level of mitral valve (MV) leaflets from PLAX (N R: 67-155 mL males and 56-104 mL females); • d. Left ventricle end systolic volume (ESV): measured with M-mode echocardiography at the level of mitral valve (MV) leaflets from PLAX (N R: 22-58 mL males and 19-49 mL females); • e. Left atrium diameter (LAD): measured at end-ventricular systole with M-mode echocardiography from PLAX. (N R: 30-40 mm males and 27-38 mm females) • f. Left atrium area (LAA): measured from apical four chamber view (NR: £20 cm2); and • g. Left atrium volume (LAV): derived from area-length measured from apical four chamber view (N R: 18-58 mL males and 22-52 mL females). • 2. Left ventricle diastolic function parameters: • a. E wave: measured from mitral valve pulsed wave Doppler, is the peak velocity of early filling. […] A wave: measured from mitral valve pulsed wave Doppler is the peak velocity of late atrial filling. Not evaluable in subjects with AF: • c. E wave deceleration time (EDT): measured from mitral valve pulsed wave Doppler represent the slope of the descending part of E wave; • d. E/A ratio: determines the type of diastolic filling pattern (normal E/A=1-2 and EDT=150-200 ms, abnormal relaxation E/A<1 and EDT>240 ms, pseudonormal E/A=0.8-1.5: restrictive E/A^32 and EDT <160 ms). Not evaluable in subjects with AF; • e. Ea: measured with tissue Doppler method at the lateral and septal side of the mitral annulus from apical four chamber view is the early diastolic velocity. The value has been calculated as the average between Ea lateral and Ea septal. (NR310 cm/s) (see Nagueh S F et al. Eur J Echocardiogr. 2009:10(2):165-93); • f. Aa: measured with tissue Doppler method at the lateral and septal side of the mitral annulus from apical four chamber view is the late atrial diastolic velocity. The value has been calculated as the average between Aa lateral and Aa septal. Not evaluable in subjects with AF; and • g. E/Ea ratio: this is a derived measure from E and Ea value. This is highly correlated with left ventricle filling pressure and with prognosis in subjects with HF. (NR: <13) (see Nagueh S F et al. supra). • 3. Left ventricle systolic function parameters: • a. Left ventricle ejection fraction (LVEF): measured with Simpson biplane method according to international recommendations from apical four chamber view and apical two chamber view. (NR ^355%) (see Lang R M et al. J Am Soc Echocardiogr. 2005:18(12): 1440-63); and • b. Sa: measured with tissue Doppler method at the lateral and septal side of the mitral annulus from apical four chamber view. The value has been calculated as the average between Sa lateral and Sa septal. […] Overall cardiac contraction parameters: • a. Stroke volume (SV): is a derived measure obtained with the application of Bernoulli's formula using the dimension of left ventricle outflow tract (LVOT) as diameter and LVOT time velocity integral as velocity. (NR>60 mL/beat); • b. Cardiac output (CO): is derived by the multiplication of SV× heart rate (HR) (NR: >4 L/min); • c. […]

[1] = 0.5 μg/kg/min, mean ± standard deviation

C[C@]12CCC(=NOCCN)C[C@@H]1C(=O)C[C@@H]1[C@@H]2CC[C@]2(C)C(=O)CC[C@@H]12 [Istaroxime, (E,Z)-3-((2-aminoethoxy)imino)androstane-6,17-dione hydrochloride]
A wave mean change from baseline (6 hours): 1.76 cm/s
CI mean change from baseline (6 hours): 0.20 l/min/m^2
E wave mean change from baseline (6 hours): -4.35 cm/s
E/A ratio mean change from baseline (6 hours): −0.28
E/e′ ratio mean change from baseline (6 hours): −3.48
EDV Index mean change from baseline (6 hours): 0.85 ml/m^2
EDV mean change from baseline (6 hours): 1.47 mL
ESV Index mean change from baseline (6 hours): −2.54 ml/m^2
ESV mean change from baseline (6 hours): -4.89 mL
IVC diameter mean change from baseline (6 hours): −2.41 mm
LAA mean change from baseline (6 hours): −0.38 cm^2
LAV mean change from baseline (6 hours): 0.05 mL
LAVI mean change from baseline (6 hours): −0.51 mL/m^2
LVEF mean change from baseline (6 hours): 2.03%
PASP mean change from baseline (6 hours): −4.21 mmHg
SVI mean change from baseline (6 hours): 5.66 ml/beat/m^2
S′ mean change from baseline (6 hours): 0.63 cm/s
TAPSE mean change from baseline (6 hours): 0.41 mm
e′ mean change from baseline (6 hours): 0.63 cm/s
A wave mean change from baseline (24 hours): 5.13 cm/s
CI mean change from baseline (24 hours): 0.27 l/min/m^2
E wave mean change from baseline (24 hours): -8.14 cm/s
E/A ratio mean change from baseline (24 hours): −0.64
E/e′ ratio mean change from baseline (24 hours): −4.55
EDV Index mean change from baseline (24 hours): −0.20 ml/m^2
EDV mean change from baseline (24 hours): -0.71 mL
ESV Index mean change from baseline (24 hours): −3.78 ml/m^2
ESV mean change from baseline (24 hours): -7.11 mL
IVC diameter mean change from baseline (24 hours): −4.30 mm
LAA mean change from baseline (24 hours): −1.70 cm^2
LAV mean change from baseline (24 hours): -7.94 mL
LAVI mean change from baseline (24 hours): −4.32 mL/m^2
LVEF mean change from baseline (24 hours): 3.03%
PASP mean change from baseline (24 hours): −10.89 mmHg
SVI mean change from baseline (24 hours): 5.33 ml/beat/m^2
S′ mean change from baseline (24 hours): 0.68 cm/s
TAPSE mean change from baseline (24 hours): 0.73 mm
e′ mean change from baseline (24 hours): 0.94 cm/s
A wave mean change from baseline (48 hours): -0.94 cm/s
CI mean change from baseline (48 hours): 0.19 l/min/m^2
E wave mean change from baseline (48 hours): -5.21 cm/s
E/A ratio mean change from baseline (48 hours): −0.28
E/e′ ratio mean change from baseline (48 hours): −2.56
EDV Index mean change from baseline (48 hours): −0.07 ml/m^2
EDV mean change from baseline (48 hours): -0.59 mL
ESV Index mean change from baseline (48 hours): −1.19 ml/m^2
ESV mean change from baseline (48 hours): -2.57 mL
IVC diameter mean change from baseline (48 hours): −4.16 mm
LAA mean change from baseline (48 hours): −2.01 cm^2
LAV mean change from baseline (48 hours): -9.17 mL
LAVI mean change from baseline (48 hours): −5.01 mL/m^2
LVEF mean change from baseline (48 hours): 1.19%
PASP mean change from baseline (48 hours): −11.18 mmHg
SVI mean change from baseline (48 hours): 3.68 ml/beat/m^2
S′ mean change from baseline (48 hours): 0.22 cm/s
TAPSE mean change from baseline (48 hours): −0.34 mm
e′ mean change from baseline (48 hours): 0.32 cm/s
E/e′ change from baseline to 24 h (primary endpoint) (mean ± standard deviation): −4.55 ± 4.75
E/e′ change from baseline to 24 h (primary endpoint) (mean ± standard deviation, listed as istaroxime): −4.55±4.75
E/A ratio change at 24 h [1]: −0.64 ± 0.79
LV ejection fraction change at 24 h [1]: 3.03 ± 4.04%
LV end-diastolic volume index change at 24 h [1]: −0.20 ± 5.45 mL/m^2
LV end-systolic volume index change at 24 h [1]: −3.78 ± 6.76 mL/m^2
Left atrial area change at 24 h [1]: −1.70 ± 2.46 cm^2
Left atrial volume index change at 24 h [1]: −4.32 ± 7.28 mL/m^2
Stroke volume index change at 24 h [1]: 5.33 ± 6.67 mL/beat/m^2
S′ change at 24 h [1]: 0.68 ± 0.91 cm/s
